The source of these data is ChEMBL document CHEMBL6096690, “Synthesis and Biological Evaluation of Peripheral HTR2A Antagonists for Colorectal Cancer” (J Med Chem, 2025).

For series [1], the target named is 5-hydroxytryptamine receptor 2A (Homo sapiens, UniProt P28223). The series is described as follows: Antagonist activity at 5HTR2A (unknown origin) assessed as inhibition of 5-HTR2A.
The target of series [2] is hERG (KCNH2) (Homo sapiens, UniProt Q12809). The series is described as follows: Inhibition of hERG at 10 uM relative to control. The series is classed as toxicity.
Sequence of hERG (KCNH2) (Q12809 whole entry): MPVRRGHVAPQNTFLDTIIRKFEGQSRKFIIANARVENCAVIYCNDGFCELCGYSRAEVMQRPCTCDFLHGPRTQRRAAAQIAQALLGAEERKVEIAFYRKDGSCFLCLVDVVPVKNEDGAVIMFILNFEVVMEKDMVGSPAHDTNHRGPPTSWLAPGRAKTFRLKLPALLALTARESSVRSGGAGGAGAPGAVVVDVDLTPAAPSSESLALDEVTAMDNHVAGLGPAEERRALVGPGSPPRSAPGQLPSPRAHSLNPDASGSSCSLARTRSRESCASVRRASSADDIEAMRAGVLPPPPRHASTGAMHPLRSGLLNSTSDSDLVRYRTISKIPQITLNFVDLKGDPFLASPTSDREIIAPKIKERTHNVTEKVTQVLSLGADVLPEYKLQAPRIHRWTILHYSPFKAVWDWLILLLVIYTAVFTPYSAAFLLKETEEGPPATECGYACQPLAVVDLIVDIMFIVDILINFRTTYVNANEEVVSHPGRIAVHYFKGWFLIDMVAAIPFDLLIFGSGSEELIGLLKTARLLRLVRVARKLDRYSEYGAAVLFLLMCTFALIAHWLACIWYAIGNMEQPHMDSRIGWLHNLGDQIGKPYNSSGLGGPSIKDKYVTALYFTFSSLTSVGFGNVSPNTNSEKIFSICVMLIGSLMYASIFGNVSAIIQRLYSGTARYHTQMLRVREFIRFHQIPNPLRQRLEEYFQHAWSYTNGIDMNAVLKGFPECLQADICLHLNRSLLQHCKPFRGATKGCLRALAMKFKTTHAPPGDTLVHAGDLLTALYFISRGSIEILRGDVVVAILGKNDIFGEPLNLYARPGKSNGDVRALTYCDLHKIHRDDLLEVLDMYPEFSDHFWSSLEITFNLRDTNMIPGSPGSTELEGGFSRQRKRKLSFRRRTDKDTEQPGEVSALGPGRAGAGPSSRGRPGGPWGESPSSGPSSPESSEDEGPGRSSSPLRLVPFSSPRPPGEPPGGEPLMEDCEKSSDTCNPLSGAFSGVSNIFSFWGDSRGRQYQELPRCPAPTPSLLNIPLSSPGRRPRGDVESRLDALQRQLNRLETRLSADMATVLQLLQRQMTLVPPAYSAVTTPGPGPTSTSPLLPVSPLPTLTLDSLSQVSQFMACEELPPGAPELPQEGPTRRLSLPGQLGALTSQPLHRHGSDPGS

Sequence of 5-hydroxytryptamine receptor 2A (P28223 whole entry): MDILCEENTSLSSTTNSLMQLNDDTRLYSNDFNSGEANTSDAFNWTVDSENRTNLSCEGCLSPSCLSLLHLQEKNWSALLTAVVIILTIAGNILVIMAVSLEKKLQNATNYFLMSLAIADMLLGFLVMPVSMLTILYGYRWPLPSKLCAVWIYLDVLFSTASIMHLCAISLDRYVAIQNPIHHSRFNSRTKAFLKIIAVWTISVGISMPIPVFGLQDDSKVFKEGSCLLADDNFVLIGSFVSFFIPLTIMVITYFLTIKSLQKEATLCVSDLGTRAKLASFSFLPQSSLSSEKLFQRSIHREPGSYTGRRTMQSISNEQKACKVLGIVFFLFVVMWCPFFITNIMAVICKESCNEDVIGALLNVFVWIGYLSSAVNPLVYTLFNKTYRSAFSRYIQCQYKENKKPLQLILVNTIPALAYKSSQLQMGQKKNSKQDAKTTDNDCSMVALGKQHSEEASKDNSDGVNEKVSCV

For `O=C(c1ccc(F)cc1)C1CCN(CC(O)COc2ccc(CNC(=O)N(Cc3ccc(F)cc3)C3CCNCC3)cc2)CC1` (stereo not given), the concentration for half-maximal inhibition (IC50) in series [1] turned out to be 667 nM.

As to `O=C(NCc1ccc(OCC(O)CN2CCN(c3nsc4ccccc34)CC2)cc1)N(Cc1ccc(F)cc1)C1CCNCC1` (stereo not given), in series [1], the IC50 turned out to be 54.2 nM.

For `O=C(NCc1ccc(OCC(O)CN2CCN(c3noc4cc(F)ccc34)CC2)cc1)N(Cc1ccc(F)cc1F)C1CCNCC1` (stereo not given), 10 µM produced 87.7% inhibition in series [2]. For the same molecule, the IC50 in series [1] was 46.5 nM.

Consider `O=C(NCc1ccc(OCC(O)CN2CCN(c3noc4cc(F)ccc34)CC2)cc1)N(Cc1cc(F)c(F)cc1F)C1CCNCC1` (stereo not given), for which at 10 µM the inhibition in series [2] was 72.9%. In series [1], the IC50 is 49.5 nM.

`O=C(NCc1ccc(OCC(O)CN2CCN(c3noc4cc(F)ccc34)CC2)cc1)N(Cc1c(F)cc(F)cc1F)C1CCNCC1` (stereo not given): in series [2], testing at 10 µM gave an inhibition of 83.6%. Besides, in series [1], the IC50 was found to be 36.4 nM.

With `O=C(NCc1ccc(OCC(O)CN2CCN(c3cccc(Cl)c3Cl)CC2)cc1)N(Cc1ccc(F)cc1)C1CCNCC1` (stereo not given), the IC50 in series [1] was determined as 91.8 nM.

On to `O=C(NCc1ccc(OCC(O)CN2CCC(C3c4ccc(Cl)cc4CCc4cccnc43)CC2)cc1)N(Cc1ccc(F)cc1)C1CCNCC1` (stereo not given), for which the IC50 in series [1] was 820 nM.
